Experimental data reported in the NIST ThermoML archive (doi:10.1021/acs.jced.8b00755).
“And” between values parts separate entries of the source, which are not always exact repeats. Identical values can stand only once.

Columns and labels:
[1] = 298.15 K; 101.3 kPa; Liquid; Vibrating tube method
[2] = refractive index (Na D-line) (dimensionless); settings: 298.15 K; 101.3 kPa; Liquid; Standard Abbe refractometry
[3] = relative permittivity at zero frequency (dimensionless); settings: 298.15 K; 101.3 kPa; Liquid; Coaxial cylinder capacitor
[4] = xn = mol fraction of the nth substance listed; settings: 298.15 K, 101.3 kPa, Liquid, Vibrating tube method
[5] = refractive index (Na D-line) (dimensionless); xn = mol fraction of the nth substance listed; settings: 298.15 K, 101.3 kPa, Liquid, Standard Abbe refractometry
[6] = relative permittivity at zero frequency (dimensionless); xn = mol fraction of the nth substance listed; settings: 298.15 K, 101.3 kPa, Liquid, Coaxial cylinder capacitor

CCCCCCCCCCO [decan-1-ol]
Settings	mass density [kg/m3]	refractive index	relative permittivity at zero frequency
[1]	826.71	–	–
[2]	–	1.4352	–
[3]	–	–	7.74

O=C1CCCC1 [cyclopentanone]
Settings	refractive index	relative permittivity at zero frequency
[2]	1.4347	–
[3]	–	13.52

O=C1CCCCC1 [cyclohexanone] + CCCCCCCCCCO
Settings	mass density, [4] [kg/m3]	refractive index, [5]	relative permittivity at zero frequency, [6]
x2 = 0	942.47	1.4485	15.81
x2 = 0.1	922.31	1.4458	14.59
x2 = 0.2	904.8	1.4436	13.46
x2 = 0.3	889.41	1.4416	12.41
x2 = 0.4	875.85	1.4399	11.44
x2 = 0.5	863.79	1.4385	10.57
x2 = 0.6	853.13	1.4374	9.81
x2 = 0.7	843.78	1.4364	9.15
x2 = 0.8	836.26	1.4358	8.59
x2 = 0.9	830.72	1.4354	8.12

CCCCCCCCCCO [decan-1-ol] + O=C1CCCCC1
x1 = 1
Settings	mass density [kg/m3]	refractive index	relative permittivity at zero frequency
[4]	826.71	–	–
[5]	–	1.4352	–
[6]	–	–	7.74

O=C1CCCCC1 [cyclohexanone] + CCO
Settings	mass density, [4] [kg/m3]	refractive index, [5]	relative permittivity at zero frequency, [6]
x2 = 0	942.47	1.4485	15.81
x2 = 0.1	938.01	1.4449	15.84
x2 = 0.2	930.92	1.4401	15.98
x2 = 0.3	921.48	1.4339	16.36
x2 = 0.4	910.02	1.4268	16.97
x2 = 0.5	896.25	1.4187	17.76
x2 = 0.6	879.92	1.4094	18.72
x2 = 0.7	860.95	1.3988	19.88
x2 = 0.8	839.21	1.3869	21.19
x2 = 0.9	814.29	1.3739	22.68

O=C1CCCCC1 [cyclohexanone] + CCCCCCCCO
Settings	mass density, [4] [kg/m3]	refractive index, [5]	relative permittivity at zero frequency, [6]
x2 = 0	942.47	1.4485	15.81
x2 = 0.1	924.71	1.4456	14.72
x2 = 0.2	908.6	1.443	13.74
x2 = 0.3	893.85	1.4403	12.87
x2 = 0.4	880.35	1.438	12.12
x2 = 0.5	867.97	1.4358	11.47
x2 = 0.6	856.69	1.4338	10.93
x2 = 0.7	846.41	1.4319	10.5
x2 = 0.8	837.29	1.4303	10.18
x2 = 0.9	829.11	1.4289	9.97

C1CCCCC1 [cyclohexane] + OC1CCCCC1
x2 = 0
Settings	refractive index	relative permittivity at zero frequency
[5]	1.4235	–
[6]	–	2.021

OC1CCCCC1 [cyclohexanol] + O=C1CCCC1
x1 = 1
Settings	refractive index	relative permittivity at zero frequency
[5]	1.4646	–
[6]	–	15.71

O=C1CCCCC1 [cyclohexanone] + CCCCCCO
Settings	mass density, [4] [kg/m3]	refractive index, [5]	relative permittivity at zero frequency, [6]
x2 = 0	942.47	1.4485	15.81
x2 = 0.1	927.39	1.4444	14.93
x2 = 0.2	912.83	1.4405	14.2
x2 = 0.3	898.77	1.4367	13.59
x2 = 0.4	885.19	1.4332	13.13
x2 = 0.5	872.11	1.4299	12.79
x2 = 0.6	859.53	1.4267	12.58
x2 = 0.7	847.55	1.4237	12.5
x2 = 0.8	836.36	1.4209	12.57
x2 = 0.9	825.91	1.4184	12.76

C1CCCCC1 [cyclohexane]
Settings	refractive index	relative permittivity at zero frequency
[2]	1.4235	–
[3]	–	2.021 and 2.02

CCCCO [butan-1-ol]
Settings	mass density [kg/m3]	refractive index	relative permittivity at zero frequency
[1]	805.92	–	–
[2]	–	1.3971	–
[3]	–	–	17.49

CCO [ethanol] + O=C1CCCCC1
x1 = 1
Settings	mass density [kg/m3]	refractive index	relative permittivity at zero frequency
[4]	785.26	–	–
[5]	–	1.3594	–
[6]	–	–	24.37
